The target of one assay is KRAS G12D (Homo sapiens, UniProt P01116, G12D). Kind of assay: SOS-catalyzed nucleotide exchange assay, KRAS G12D (Procedure A). It counts as biochemical. Conditions: guanine nucleotide exchange (GNE). In a few lines:
(§1)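 Compounds were preincubated 60 min with a biotinylated RAS·Bodipy-GDP/Tb-streptavidin TR-FRET complex, and exchange was started with human SOS plus 3 mM GTP at RT. RAS/SOS: G12C 3 nM/40 nM, WT and G12D 1 nM/40 nM, all 60 min; G13D 1.25 nM/0 nM, 30 min. 520/495 ratio normalized to DMSO and saturating inhibitor, four-parameter fit.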

For another assay, the target named is KRAS WT (Homo sapiens, UniProt P01116). Kind of assay: SOS-catalyzed nucleotide exchange assay, KRAS WT (Procedure A). The conditions noted are these: GNE. In kind it is biochemical. A digest of the protocol: as §1
Sequence of KRAS WT (P01116 with tags, fused parts or gaps isoform P01116-2): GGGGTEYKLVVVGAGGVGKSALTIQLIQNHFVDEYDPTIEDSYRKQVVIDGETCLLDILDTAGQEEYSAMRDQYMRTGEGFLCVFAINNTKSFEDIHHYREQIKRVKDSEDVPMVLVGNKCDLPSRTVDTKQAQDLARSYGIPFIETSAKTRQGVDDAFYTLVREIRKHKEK
Another assay deals with KRAS G12V (Homo sapiens, UniProt P01116, G12V). Description: SOS-catalyzed nucleotide exchange assay, KRAS G12V (Procedure A). In kind it is biochemical. The conditions noted are these: GNE. A digest of the protocol: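 Biotinylated KRAS G12V was loaded with Bodipy-GDP alongside Terbium-streptavidin to form a TR-FRET complex, which was preincubated with compounds for 60 minutes in 384-well plates. Human SOS protein and unlabeled GTP were then added for 90 minutes, giving final concentrations of 1.25 nM KRAS-G12V, 160 nM SOS and 3 mM GTP. The 520/495 nm emission ratio was read on an Envision.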
Sequence of KRAS G12V (P01116 with tags, fused parts or gaps isoform P01116-2 G12V): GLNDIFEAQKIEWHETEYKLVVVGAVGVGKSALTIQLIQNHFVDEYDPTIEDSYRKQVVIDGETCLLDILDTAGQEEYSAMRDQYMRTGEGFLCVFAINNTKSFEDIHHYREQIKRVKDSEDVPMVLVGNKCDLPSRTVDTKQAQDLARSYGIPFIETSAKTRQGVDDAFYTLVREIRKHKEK

The target of a further assay is T1, AsPC-1 cells (Homo sapiens, UniProt P01116, G12D).
T1 construct: p-ERK/total ERK AlphaSureFire read-out
T1 sequence (P01116 1-188 isoform P01116-2 G12D): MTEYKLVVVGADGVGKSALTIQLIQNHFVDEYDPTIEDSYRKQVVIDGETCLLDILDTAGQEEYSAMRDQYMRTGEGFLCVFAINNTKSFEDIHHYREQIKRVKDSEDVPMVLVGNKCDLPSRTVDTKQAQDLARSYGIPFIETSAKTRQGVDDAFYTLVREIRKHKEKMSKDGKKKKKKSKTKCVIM
Description: Cellular phospho-ERK assay, AsPC-1 cells (KRAS G12D). It counts as cell-based. Conditions: 2 hours, read-out: AsPC1 pERK IC50. A digest of the protocol:
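PANC08.13 or AsPC-1 cells (homozygous KRAS G12D) were seeded overnight, then treated for 2 h at 37 °C with a 10-point 1:3 titration from 30 μM. Lysates were assayed by AlphaLISA SureFire for p-ERK and total ERK. IC50 came from a 4-parameter fit of the p-ERK/total ERK ratio.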

Where only a bound is given, the exact number is not on record here.

Sequence of KRAS G12D (P01116 with tags, fused parts or gaps isoform P01116-2 G12D): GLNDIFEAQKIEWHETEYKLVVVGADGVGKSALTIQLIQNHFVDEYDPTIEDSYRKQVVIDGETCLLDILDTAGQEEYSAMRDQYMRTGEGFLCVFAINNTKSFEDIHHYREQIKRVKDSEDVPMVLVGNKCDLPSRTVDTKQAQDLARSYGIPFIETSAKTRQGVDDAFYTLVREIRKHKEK

In general, IC50 refers to the midpoint of a concentration-inhibition curve. On to `F[C@H]1CN2CCC[C@@]2(COc2nc(N3C[C@H]4CC[C@@H](C3)N4)c3c(n2)C2(CC2)c2c-3ccnc2-c2c(C3CC3)c(Cl)cc3[nH]ncc23)C1` (single isomer, unassigned) [Ex-115], for which the 50% inhibitory concentration (IC50) against KRAS G12D was determined as 9 nM; at KRAS WT it was 2050 nM; against KRAS G12V, 2120 nM; at AsPC-1 cells, 523 nM.
On to `C#Cc1c(F)ccc2cc3[nH]ncc3c(-c3nccc4c3sc3nc(OC[C@]5(CN6CC7(CC(F)C7)C6)CC5(F)F)nc(N5C[C@H]6CC[C@@H](C5)N6)c34)c12` [Ex-99, 4-((1R,5S)-3,8-diazabicyclo[3.2.1]octan-3-yl)-2-(((R)-2,2-difluoro-1-((6-fluoro-2-azaspiro[3.3]heptan-2-yl)methyl)cyclopropyl)methoxy)-8-(5-ethynyl-6-fluoro-1H-benzo[f]indazol-4-yl)pyrido[4′,3′:4,5]thie-no[2,3-d]pyrimidine], for which the IC50 came out at 1.53 nM on KRAS G12D, 1080 nM against KRAS WT, 2740 nM against KRAS G12V and 59.9 nM on AsPC-1 cells.
In the same order, the values of `FC(F)(F)C1(COc2nc(N3C[C@H]4CC[C@@H](C3)N4)c3c(n2)sc2c(-c4c(C5CC5)c(Cl)cc5[nH]ncc45)nccc23)CCOCC1` [Ex-118, 4-((1R,5S)-3,8-diazabicyclo[3.2.1]octan-3-yl)-8-(6-chloro-5-cyclopropyl-1H-indazol-4-yl)-2-((4-(trifluoromethyl)tetrahydro-2H-pyran-4-yl)methoxy)pyrido[4′,3′:4,5]thieno[2,3-d]pyrimidine] are 3200 nM, 6270 nM, > 11100 nM and 4880 nM.
Taken in the same sequence, the figures for `C#Cc1c(F)ccc2cc3[nH]ncc3c(-c3nccc4c3sc3nc(OC[C@@]56CCCN5C/C(=C\F)C6)nc(N5C[C@H]6CC[C@@H](C5)N6)c34)c12` [Ex-89, 4-((1R,5S)-3,8-diazabicyclo[3.2.1]octan-3-yl)-8-(5-ethynyl-6-fluoro-1H-benzo[f]indazol-4-yl)-2-(((S,Z)-2-(fluoromethylene)tetrahydro-1H-pyrrolizin-7a(5H)-yl)methoxy)pyrido[4′,3′:4,5]thieno[2,3-d]pyrimidine] were 1.67 nM, 32.8 nM, 48.8 nM and 8.18 nM.
Taken in the same sequence, the figures for `C#Cc1c(F)ccc2cc3[nH]ncc3c(-c3nccc4c3sc3nc(OC[C@@]56CCCN5C/C(=C\F)C6)nc(N5C[C@@H]6C[C@H](O)[C@H](C5)N6)c34)c12` [Ex-114, (1S,5S,6S)-3-(8-(5-ethynyl-6-fluoro-1H-benzo[f]indazol-4-yl)-2-(((S,Z)-2-(fluoromethylene)tetrahydro-1H-pyrrolizin-7a(5H)-yl)methoxy)pyrido[4′,3′:4,5]thieno[2,3-d]pyrimidin-4-yl)-3,8-diazabicyclo[3.2.1]octan-6-ol] were 1.81 nM, 36.2 nM, 37.7 nM and 97 nM.
In the case of `C#Cc1c(F)ccc2cc3[nH]ncc3c(-c3nccc4c3sc3nc(OC[C@]5(CN6CCC7(CC6)CC(Cc6cn(C)nn6)C7)CC5(F)F)nc(N5C[C@H]6CC[C@@H](C5)N6)c34)c12` [Ex-106, 4-((1R,5S)-3,8-diazabicyclo[3.2.1]octan-3-yl)-2-(((R)-2,2-difluoro-1-((2-((1-methyl-1H-1,2,3-triazol-4-yl)methyl)-7-azaspiro[3.5]nonan-7-yl)methyl)cyclopropyl)methoxy)-8-(5-ethynyl-6-fluoro-1H-benzo[f]indazol-4-yl)pyrido[4′,3′:4,5]thie-no[2,3-d]pyrimidine], the IC50 against KRAS G12D stood at 2.03 nM; against KRAS WT it was 877 nM; against KRAS G12V, 1700 nM; at AsPC-1 cells, 74 nM.
In the same order, the values of `C#Cc1c(F)ccc2cc3[nH]ncc3c(-c3nccc4c3sc3nc(OCC5(C(F)(F)F)CCOCC5)nc(N5C[C@H]6CC[C@@H](C5)N6)c34)c12` [Ex-110, 4-((1R,5S)-3,8-diazabicyclo[3.2.1]octan-3-yl)-8-(5-ethynyl-6-fluoro-1H-benzo[f]indazol-4-yl)-2-((4-(trifluoromethyl)tetrahydro-2H-pyran-4-yl)methoxy)pyrido[4′,3′:4,5]thieno[2,3-d]pyrimidine] are 2050 nM, > 11100 nM, > 11100 nM and 8280 nM.
In the same order, the values of `C#Cc1csc2cc3[nH]ncc3c(-c3nccc4c3sc3nc(OCC5(C#N)CCOCC5)nc(N5C[C@H]6CC[C@@H](C5)N6)c34)c12` [Ex-84, 4-(((4-((1R,5S)-3,8-diazabicyclo[3.2.1]oc-tan-3-yl)-8-(5-ethynyl-1H-thieno[3,2-f]indazol-4-yl)pyrido[4′,3′:4,5]thi-eno[2,3-d]pyrimi-din-2-yl)oxy)methyl)tetrahydro-2H-pyran-4-carbonitrile] are 111 nM, > 11100 nM, > 11100 nM and 2940 nM.
`C#Cc1c(F)ccc2cc3[nH]ncc3c(-c3nccc4c3sc3nc(OC[C@]5(CO)CC5(F)F)nc(N5C[C@H]6CC[C@@H](C5)N6)c34)c12` [Ex-109, ((1R)-1-(((4-((1R,5S)-3,8-diazabicyclo[3.2.1]octan-3-yl)-8-(5-ethynyl-6-fluoro-1H-benzo[f]indazol-4-yl)pyrido[4′,3′:4,5]thieno[2,3-d]pyrimidin-2-yl)oxy)methyl)-2,2-difluorocyclopropyl)methanol]: the IC50 was 25.9 nM against KRAS G12D, > 11100 nM against KRAS WT, > 11100 nM against KRAS G12V and 1010 nM at AsPC-1 cells.
Turning to `C#Cc1c(F)ccc2cc3[nH]ncc3c(-c3nccc4c3sc3nc(OCC56CCCN5CC(=C(F)F)C6)nc(N5C[C@H]6CC[C@@H](C5)N6)c34)c12` (stereo partly drawn) [Ex-93, 4-((1R,5S)-3,8-diazabicyclo[3.2.1]octan-3-yl)-2-(((S)-2-(difluoromethylene)tetra-hydro-1H-pyrrolizin-7a(5H)-yl)methoxy)-8-(5-ethynyl-6-fluoro-1H-benzo[f]indazol-4-yl)pyrido[4′,3′:4,5] thie-no[2,3-d]pyrimidine], the IC50 was determined as 1.16 nM against KRAS G12D, 72.9 nM against KRAS WT, 94.3 nM against KRAS G12V and 18 nM at AsPC-1 cells.
In the same order, the values of `C#Cc1c(F)ccc2cc3[nH]ncc3c(-c3nccc4c3sc3nc(OC[C@@]56CCCN5C[C@H](F)C6)nc(N5C[C@H]6CC[C@@H](C5)N6CCCC#N)c34)c12` [Ex-88, 4-((1R,5S)-3-(8-(5-ethynyl-6-fluoro-1H-benzo[f]indazol-4-yl)-2-(((2R,7aS)-2-fluorotetrahydro-1H-pyrrolizin-7a(5H)-yl)methoxy)pyrido[4′,3′:4,5]thieno[2,3-d]pyrimidin-4-yl)-3,8-diazabicyclo[3.2.1]octan-8-yl)butanenitrile] are 100 nM, 743 nM, 1780 nM and 368 nM.
In the same order, the values of `Cc1cc2[nH]ncc2c(-c2nccc3c2sc2nc(OCC45COC(CF)(C4)C5)nc(N4C[C@H]5CC[C@@H](C4)N5)c23)c1C(F)(F)F` [Ex-28, 4-((1R,5S)-3,8-diazabicyclo[3.2.1]octan-3-yl)-2-((1-(fluoromethyl)-2-oxabicyclo[2.1.1]hexan-4-yl)methoxy)-8-(6-methy1-5-(trifluoromethyl)-1H-indazol-4-yl)pyrido[4′,3′:4,5]thieno[2,3-d]pyrimidine] are 3340 nM, > 11100 nM, > 11100 nM and > 30000 nM.
In the same order, the values of `CCc1c(F)ccc2cc3[nH]ncc3c(-c3nccc4c3sc3nc(OC[C@@]56CCCN5C[C@H](F)C6)nc(N5C[C@H]6CC[C@@H](C5)N6)c34)c12` [Ex-87, 4-((1R,5S)-3,8-diazabicyclo[3.2.1]octan-3-yl)-8-(5-ethyl-6-fluoro-1H-benzo[f]indazol-4-yl)-2-(((2R,7aS)-2-fluorotetrahydro-1H-pyrrolizin-7a(5H)-yl)methoxy)pyrido[4′,3′:4,5]thieno[2,3-d]pyrimidine] are 3.58 nM, 467 nM, 412 nM and 86.3 nM.
For `C#Cc1c(F)ccc2cc3[nH]ncc3c(-c3nccc4c3sc3nc(OCC56CCCC5N(C)CCC6)nc(N5C[C@H]6CC[C@@H](C5)N6)c34)c12` (stereo partly drawn) [Ex-92, 4-((1R,5S)-3,8-diazabicyclo[3.2.1]octan-3-yl)-8-(5-ethynyl-6-fluoro-1H-benzo[f]indazol-4-yl)-2-((1-methyloctahydro-4aH-cyclopenta[b]pyridin-4a-yl)methoxy)pyrido[4′, 3′:4,5]thieno[2,3-d]pyrimidine], the IC50 against KRAS G12D was determined as 1.99 nM; on KRAS WT it was 57.4 nM; on KRAS G12V, 88.2 nM; on AsPC-1 cells, 18.1 nM.

These data come from patent US20260347372A1, “SMALL MOLECULE INHIBITORS OF KRAS G12D MUTANT” (MERCK SHARP & DOHME LLC, priority 2023, published 2026).
